This note sets out measurements from US7550469B2, “Heterocyclic amide derivatives and their use as dopamine D3 receptor ligands” (Aventis Pharmaceuticals Inc., priority 2001, dated 2009).

Data set [1] concerns the target Alpha-1 adrenergic receptors from rat brain cortex. The experiment in a line: [3H]Prazosin binding to alpha-1 adrenergic receptors from rat brain cortex (Protocol 4). The source says: [^3H]Prazosin Binding to Alpha-1 Adrenergic Receptors from Rat Brain Cortex
Objective: This in vitro assay is designed as a screen to identify compounds displaying a affinity for the a, adrenoceptor subtype in membranes from rat cortex. It measures the ability of the test compounds to displace [^3H]prazosin from the α1 sites.
Membrane Preparation: Rat brain tissue can be obtained from either fresh (male Wistar rats; 200-250 g) or frozen (male Sprague-Dawley 200-250 g from Harlan; cat. #BT-403) stocks. The cortex is dissected, homogenized in 50 vol (wet weight) ice-cold 50 mM Tris buffer (pH 7.7 at 25° C.). The homogenate is centrifuged at 48,000 g for 10 min, the pellet is resuspended in 50 mM Tris buffer and centrifuged a second time. The second pellet (P2) is resuspended to yield a concentration of 115 mg wet weight per 10 ml. […] Membranes should be mixed just before addition to ensure an even suspension. […] This is diluted to a 0.5 mM stock in dH2O. Serial dilutions in Buffer A are made from which 50 μl additions to the plate are made in duplicate in order to achieve the final concentrations desired. Typically, one 96 well plate is used to evaluate 11 compounds at 4 concentrations (10^−6-10^−9 M) in duplicate. Total binding and nonspecific binding are determined in quadruplicate. Usually one standard is run with each assay. • [^3H]Prazosin is made up in Buffer A such that when 50 μl are added per well the final concentration is […] in a final assay volume of 200 μl. The final concentration should be verified by running a sample in a scintillation counter prior to adding the [^3H]prazosin to the 96 well plate. Note: The radioactivity should be prepared just before the additions are made so that it is not allowed to sit on the bench for very long. • Packard GF/B Plate Pretreatment: The filter plates are presoaked for at least 30 min in ice cold Buffer B containing 0.05% polyethyleneimine (200 μl/200 ml) to maximize filtration efficiency and minimize filter blank binding. • Incubation & Filtration: Once buffer, compounds, [^3H]prazosin and membrane have been added (and mixed), the 96 well plates are incubated for 40 min at 37° C. and spaced 3-5 min apart. At 40 min, the plates are filtered using a Tomtec Automated Cell Harvester. Filtration is immediately followed by washes of ice cold Buffer B (total vol. ˜7 ml). • Drying and Counting: Each filter plate is dried under a heat lamp for 15 min. The back of the plate is sealed and 40 μl of Packard microscint fluid are added per well. Using Packard film, each plate is heat sealed prior to being counted in a Packard Topcount Scintillation counter. A program has been written that counts each plate twice sending DPM, CPM and TSIS data to disk and printer. • Analysis of Results: Raw DPM and CPM data are captured on disk and are imported into one of several software packages (Graphpad Prism Ver 2.0, Excel) residing on the LAN. Specific binding is defined as the difference between total binding and the binding in the presence of 10 μM phentolamine. Total binding is less than 10% of the total added ligand. Software using one-site competition curve analysis is employed in the calculation of IC50 and KI (Cheng-Prusoff equation, 1973). The top and bottom of the non-linear regression are held constant at 0% and 100% inhibition. The percent inhibition at each drug concentration is the mean of duplicate determinations.

The target of data set [2] is T1, cloned human alpha-1A adrenergic receptors (α1a) (Homo sapiens, UniProt P35348).
T1 construct: expressed in transfected cells; host or cells: CHO cells, G418-resistant clone, pcDNA3 vector; membrane fragments
T1 sequence (P35348 1-466): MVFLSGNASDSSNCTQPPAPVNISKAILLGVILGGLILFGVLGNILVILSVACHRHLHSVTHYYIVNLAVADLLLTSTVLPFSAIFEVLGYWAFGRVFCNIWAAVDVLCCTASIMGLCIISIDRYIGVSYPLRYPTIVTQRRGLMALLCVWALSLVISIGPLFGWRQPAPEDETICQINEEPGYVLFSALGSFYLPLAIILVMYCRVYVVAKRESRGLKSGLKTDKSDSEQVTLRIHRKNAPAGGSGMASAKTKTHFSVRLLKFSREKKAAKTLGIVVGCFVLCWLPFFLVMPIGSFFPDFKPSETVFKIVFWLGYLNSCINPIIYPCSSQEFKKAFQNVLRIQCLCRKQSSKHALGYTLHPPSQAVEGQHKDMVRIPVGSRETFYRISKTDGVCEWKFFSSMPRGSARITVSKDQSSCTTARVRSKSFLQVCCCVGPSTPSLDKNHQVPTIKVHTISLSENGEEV
The experiment in a line: [3H]Prazosin binding to cloned human alpha-1A adrenergic receptors expressed in CHO cells. To be noted: human α-1; 6-fluoro vs 6-trifluoromethyl benzo[b]thiophene pairs; read-out: halpha 1 Ki (nM) h = human. From the text: ^3H]PRAZOSIN BINDING TO CLONED HUMAN ALPHA-1A ADRENERGIC RECEPTORS (α1a) EXPRESSED IN CHINESE HAMSTER OVARY CELLS (CHO)
Purpose: This in vitro assay is designed as a screen to identify compounds displaying a affinity for the human α1a adrenoceptor subtype expressed in the membrane fragments of CHO cells. The assay measures the ability of the test compounds to displace [^3H] prazosin from α1a sites. • The identification of multiple vascular α1-addrenoceptors (α1a, α1b, α1d) in vitro has provided impetus to define the role(s) of these subtypes in cardiovascular regulation in vivo (Vargas and Gorman, 1995). […] Prazosin is a potent antagonist of the human α1a-adrenoceptor subtype, which has been cloned and is expressed in the membrane fragments of CHO cells. hα1a Receptor: The cloning of the human α1a cDNA was accomplished first by screening a human prostate cDNA library (Clontech), from which a portion of the coding region was obtained. This DNA fragment was then used to screen a human leukocyte genomic library (Clontech), and the rest of the coding sequence was obtained. Later these two fragments were spliced together. The entire coding sequence was then fully sequenced including matching PCR sequence with original genomic coding sequence, thus ensuring splice sites were joined correctly (Schwinn et al., 1995). Once sequenced, the gene was subcloned into the expression vector pcDNA3 (Invitrogen). Plasmid DNA was then used for transfection into CHO cells and G418 resistant clones were isolated. A clone expressing high levels of the hα1a receptor (as determined by mRNA and receptor binding data) was chosen and pharmacologically characterized. Culture Media: Media Ingredients for Adherent α1a expressing CHO Culture: • A. HAM's F-12 (Cellgro) • B. 10% 0.2 micron filtered Fetal Bovine Serum (FBS)(Cellgro) • C. 1% 0.2 micron filtered Penicillin-Streptomycin (Celigro) • D. G418 0.2 micron filtered (Geneticin 400 μg/ml)(Cellgro) • Cells are cultured using established methods and procedures in either 150×25 mm culture plates (scale up to 100 plates) or a combination of these plates and 70 roller bottles. One culturing/harvest cycle typically requires 2 weeks and yields between 100-400 mg protein. Plates or bottles are incubated at 37° C.+5% CO2. Storage: Cells are harvested by mechanical scraping, washed using PBS, collected in 250 ml Corning polypropylene centrifuge tubes, spun down (1500RPM) and resuspended in dH2O 10% DMSO (final volume per harvest is approximately 50 ml). Protein determination is made using the Biorad DC Assay Kit. Finally, the appropriate volume is aliquoted into a 2 ml Corning Cryovial (10 mg/1-1.5 ml) which is stored at −80° C. Current Lot Data:
Assay Requirement: 0.5 cryovials per 96 well plate (assay volume=200 μl/well) [^3H]-Ligand: [7-methoxy-^3H]-Prazosin: 1.0 nM (NEN, NET-823) • 70-87 Ci/mmol Materials: Phentolamine mesylate (Research Biochemicals Int. #P-131) • 96 well flat bottom plates (Beckman) • Unifilter GF/B Plate (Packard) • Polyethylenimine (Sigma #P-3134) • TomTec or Packard Filtermate 196 Cell Harvesters • Packard TopCount Scintillation Counter Buffers: A: 50 mM Tris HCl; 0.1% ascorbate, pH 7.7 (incubation buffer) • B: 50 mM Tris HCl; pH 7.7 (wash buffer) Procedure: Assay additions are as follows (in the order indicated): • Total Binding=50 μl buffer A+50 μl [^3H]prazosin+100 μl membrane • Nonsp. Bd.=50 μl 10 μM phentolamine+50 μl [^3H]prazosin+100 μl membrane • Test Cpd.=50 μl compound+50 μl [^3H]prazosin+100 μl membrane • Compounds to be evaluated are weighed out to yield a 10 mM stock solution in DMSO in a 24 well polystyrene plate. This is diluted to a 0.5 mM stock in dH2O. Serial dilutions in Buffer A are made from which 50 μl additions to the plate are made in duplicate in order to achieve the final concentrations desired. Typically, one 96 well plate is used to evaluate 11 compounds at 4 concentrations (10^−6-10^−9 M) in duplicate. […]

[3] abbreviates: r = rat, piperazines (n = 1) vs homopiperazines (n = 2), read-out: r-α1 Ki.
[4] abbreviates: rat α-1, read-out: rat alpha 1 Ki.

Structures are written as SMILES. Like-named read-outs stand apart in the source and are kept apart here.

Usually Ki stands for the equilibrium dissociation constant of an inhibitor or competing ligand from its target. Consider `O=C(NCCCCN1CCN(c2csc3cc(F)ccc23)CC1)c1ccc2ccccc2c1` [compound 813372], for which the Ki in data set [1] (setting [3]) is 40.6 nM.

Consider `COc1cccc(C(=O)NCCCCN2CCN(c3csc4cc(F)ccc34)CC2)c1` [compound 813380], for which, in data set [1] (setting [3]), the Ki worked out at 21.9 nM.

Consider `O=C(NCCCCN1CCN(c2csc3cc(F)ccc23)CC1)c1ccc2c(c1)OCO2` [compound 813375], for which the Ki in data set [1] (setting [4]) is 2.6 nM.

On to `O=C(NCCCCN1CCN(c2csc3cc(F)ccc23)CC1)c1ccc(F)cc1F` [compound 813920], for which the Ki in data set [1] (setting [4]) stood at 2 nM.

As a reminder, the melting point is the temperature of the solid-liquid transition. `Cl.c1cc2onc(C3CCNCC3)c2s1` yielded a melting point of 263 to 265 °C.

Regarding `O=C(NCCCCN1CCN(c2csc3cc(F)ccc23)CC1)c1ccco1` [compound 813371], the Ki in data set [1] (setting [3]) and in data set [1] (setting [4]) was 1.1 nM throughout.

In the case of `O=C(NCCCCN1CCN(c2csc3cc(F)ccc23)CC1)c1ccc(-c2ccccc2)cc1` [813585A], in data set [2], the Ki is 5.67 nM.

For `CCCCOc1ccc(C(=O)NCCCCN2CCN(c3csc4cc(F)ccc34)CC2)cc1` [compound 813376], in data set [1] (setting [4]), the Ki was 10.9 nM.

On to `O=C(NCCCCN1CCN(c2csc3cc(F)ccc23)CC1)c1c(F)cccc1F` [compound 813918], for which the Ki in data set [1] (setting [4]) worked out at 4 nM.

Consider `O=C(NCCCCN1CCN(c2csc3cc(F)ccc23)CC1)c1cc2ccccc2s1` [compound 811614], for which the Ki in data set [1] (setting [3]) and in data set [1] (setting [4]) was 5 nM in each case.

`O=C(NCCCCN1CCN(c2csc3cc(F)ccc23)CC1)c1ccc(Cl)cc1` [compound 813754]: in data set [1] (setting [4]), the Ki was 7 nM.

With `O=C(NCCCCN1CCN(c2csc3cc(F)ccc23)CC1)c1sc2ccccc2c1Cl` [compound 813377], in data set [1] (setting [4]), the Ki was found to be 15.4 nM.

For the molecule `O=C(NCCCCN1CCN(c2csc3cc(F)ccc23)CC1)c1ccc(Br)cc1` [compound 813381], the Ki in data set [1] (setting [4]) stood at 32.3 nM.

In the case of `O=C(NCCCCN1CCN(c2csc3cc(F)ccc23)CC1)c1cc2ccccc2[nH]1` [compound 813373], in data set [1] (setting [3]), the Ki was 25.2 nM.

In the case of `COc1ccccc1C(=O)NCCCCN1CCN(c2csc3cc(F)ccc23)CC1` [compound 813368], the Ki in data set [1] (setting [3]) and in data set [1] (setting [4]) was 4.1 nM in each case.

For the molecule `O=C(NCCCCN1CCN(c2csc3cc(F)ccc23)CC1)c1ccc2[nH]ccc2c1` [compound 814018], the Ki in data set [1] (setting [3]) came out at 5 nM.

For `CCOc1ccc(C(=O)NCCCCN2CCN(c3csc4cc(F)ccc34)CC2)cc1` [compound 813914], in data set [1] (setting [4]), the Ki was determined as 3 nM.

Regarding `O=C(NCCCCN1CCN(c2csc3cc(F)ccc23)CC1)c1c[nH]c2ccccc12` [compound 814026], the Ki in data set [1] (setting [3]) was determined as 12 nM.

For the molecule `O=C(NCCCCN1CCN(c2csc3cc(F)ccc23)CC1)c1ccc(C(F)(F)F)cc1` [compound 813374], the Ki in data set [1] (setting [3]) and in data set [1] (setting [4]) was 32.4 nM throughout.
